Measurements published in publication PMC9687610, “Adenosine-Mimicking Derivatives of 3-Aminopyrazine-2-Carboxamide: Towards Inhibitors of Prolyl-tRNA Synthetase with Antimycobacterial Activity” (Biomolecules, 2022).
Converted amounts (≈) assume the structure as drawn.

Columns and labels:
[1] = test system: Candida krusei CCM 8271 (ATCC 6258); experiment: Antifungal microdilution broth (EUCAST), CK; assay type: cell-based; conditions: Pichia kudriavzevii; read after 24 h; read-out: CK MIC
[2] = test system: Mycobacterium smegmatis DSM 43465 (ATCC 607); experiment: Microplate Alamar Blue Assay (MABA), M. smegmatis; assay type: cell-based; conditions: Mycolicibacterium smegmatis; MABA, resazurin after 48 h; read-out: M. smegmatis MIC
[3] = test system: Staphylococcus aureus subsp. aureus CCM 4223 (ATCC 29213); experiment: Antibacterial microdilution broth (EUCAST), SA; assay type: cell-based; conditions: Staphylococcus aureus; read after 24 h; read-out: SA MIC
[4] = test system: Candida tropicalis CCM 8264 (ATCC 750); experiment: Antifungal microdilution broth (EUCAST), CT; assay type: cell-based; conditions: Candida tropicalis; read after 24 h; read-out: CT MIC
[5] = test system: M. aurum DSM 43999 (ATCC 23366); experiment: Microplate Alamar Blue Assay (MABA), M. aurum; assay type: cell-based; conditions: Mycolicibacterium aurum; MABA, resazurin after 72 h; read-out: M. aurum MIC
[6] = test system: Acinetobacter baumannii DSM 30007 (ATCC 19606); experiment: Antibacterial microdilution broth (EUCAST), ACI; assay type: cell-based; conditions: Acinetobacter baumannii; read after 24 h; read-out: ACI MIC
[7] = test system: Candida parapsilosis CCM 8260 (ATCC 22019); experiment: Antifungal microdilution broth (EUCAST), CP; assay type: cell-based; conditions: Lodderomyces parapsilosis; read after 24 h; read-out: CP MIC
[8] = test system: Aspergillus fumigatus ATCC 204305; experiment: Antifungal microdilution broth (EUCAST), AF; assay type: cell-based; conditions: Aspergillus fumigatus, ATCC204305; read after 24 h; read-out: AF MIC
[9] = test system: Staphylococcus epidermidis CCM 4418 (ATCC 12228); experiment: Antibacterial microdilution broth (EUCAST), SE; assay type: cell-based; conditions: read after 24 h, read-out: SE MIC
[10] = test system: Escherichia coli CCM 3954 (ATCC 25922); experiment: Antibacterial microdilution broth (EUCAST), EC; assay type: cell-based; conditions: Escherichia coli; read after 24 h; read-out: EC MIC
[11] = test system: Lichtheimia corymbifera CCM 8077; experiment: Antifungal microdilution broth (EUCAST), LC; assay type: cell-based; conditions: Lichtheimia corymbifera, CCM8077; read after 24 h; read-out: LC MIC
[12] = test system: Aspergillus flavus CCM 8363; experiment: Antifungal microdilution broth (EUCAST), AFla; assay type: cell-based; conditions: Aspergillus flavus, CCM8363; read after 24 h; read-out: AFla MIC
[13] = test system: Trichophyton interdigitale CCM 8377 (ATCC 9533); experiment: Antifungal microdilution broth (EUCAST), TI; assay type: cell-based; conditions: Trichophyton interdigitale, 72 h, read-out: TI MIC
[14] = test system: Pseudomonas aeruginosa CCM 3955 (ATCC 27853); experiment: Antibacterial microdilution broth (EUCAST), PA; assay type: cell-based; conditions: Pseudomonas aeruginosa; read after 24 h; read-out: PA MIC
[15] = test system: HepG2 human hepatocellular carcinoma cells; experiment: In vitro HepG2 cytotoxicity (CellTiter 96); conditions: Homo sapiens, HepG2, 24 h, read-out: HepG2 IC50, 24 h incubation; * limit = highest evaluated concentration (precipitation in medium); ** over the 1000 µM limit
[16] = test system: Klebsiella pneumoniae CCM 4415 (ATCC 10031); experiment: Antibacterial microdilution broth (EUCAST), KP; conditions: read after 24 h
[17] = test system: Enterococcus faecalis CCM 4224 (ATCC 29212); experiment: Antibacterial microdilution broth (EUCAST), EF; assay type: cell-based; conditions: Enterococcus faecalis; read after 24 h; read-out: EF MIC
[18] = test system: Staphylococcus aureus subsp. aureus methicillin-resistant (MRSA) CCM 4750 (ATCC 43300); experiment: Antibacterial microdilution broth (EUCAST), MRSA; assay type: cell-based; conditions: Staphylococcus aureus; read after 24 h; read-out: MRSA MIC
[19] = test system: Mycobacterium tuberculosis H37Ra ITM-M006710 (ATCC 9431); experiment: Microplate Alamar Blue Assay (MABA), Mtb H37Ra; assay type: cell-based; conditions: for MIC: Mycobacterium tuberculosis, 120 h, pH 6.6, MABA, Middlebrook 7H9 broth pH 6.6, resazurin after 120 h, read-out: Mtb H37Ra MIC; for antimycobacterial activity (in words): activity refers to Mtb H37Ra from the primary screening if not otherwise stated
[20] = test system: Candida albicans CCM 8320 (ATCC 24433); experiment: Antifungal microdilution broth (EUCAST), CA; assay type: cell-based; conditions: Candida albicans; read after 24 h; read-out: CA MIC

SMILES	MIC [1] [µM]	MIC [2] [µg/mL]	MIC [3] [µM]	MIC [4] [µM]	MIC [5] [µg/mL]	MIC [6] [µM]	MIC [7] [µM]	MIC [8] [µM]	MIC [9] [µM]	MIC [10] [µM]	melting point [°C]	MIC [11] [µM]	MIC [12] [µM]	MIC [13] [µM]	MIC [14] [µM]	IC50 [15] [mM]	KP MIC [16] [µM]	MIC [17] [µM]	MIC [18] [µM]	MIC [19] [µg/mL]	also measured
CNC(=O)c1nccnc1NC(=O)c1ccc(Br)cc1 [Compound 35]	> 125	≥ 500	> 125	> 125	≥ 500	> 125	> 125	> 125	> 125	> 125	202 to 202.5	> 125	> 125	> 125	> 125	> 0.05	> 125	> 125	> 125	≥ 500	MIC [20]: > 125 µM
Cc1ccc(C(=O)Nc2nccnc2C(=O)N(C)C)cc1 [Compound 36]	> 125	≥ 500	> 125	> 125	≥ 500	> 125	> 125	> 125	> 125	> 125	188.7 to 189.5	> 125	> 125	> 125	> 125	> 1	> 125	> 125	> 125	≥ 500	antimycobacterial activity (in words) [19]: inactive; MIC [20]: > 125 µM
CN(C)C(=O)c1nccnc1NC(=O)c1ccc(Cl)cc1 [Compound 37]	> 500	≥ 500	> 500	> 500	≥ 500	> 500	> 500	> 500	> 500	> 500	184.1 to 185.3	> 500	> 500	> 500	> 500	> 1	> 500	> 500	> 500	≥ 500	antimycobacterial activity (in words) [19]: inactive; MIC [20]: > 500 µM
O=c1[nH]c(-c2ccccc2)nc2nccnc12 [Compound 39]	> 125	≥ 500	> 125	> 125	125 (≈ 557 µM)	> 125	> 125	> 125	> 125	> 125	283.5 to 284.5	> 125	> 125	> 125	> 125	> 1	> 125	> 125	> 125	62.5 (≈ 279 µM)	MIC [20]: > 125 µM
Cc1ccc(-c2nc3nccnc3c(=O)[nH]2)cc1 [Compound 40]	> 125	≥ 250	> 125	> 125	250 (≈ 1050 µM)	> 125	> 125	> 125	> 125	> 125	300.5 to 302	> 125	> 125	> 125	> 125	> 1	> 125	> 125	> 125	31.2 (≈ 131 µM)	MIC [20]: > 125 µM
O=c1[nH]c(-c2ccc(F)cc2)nc2nccnc12 [Compound 41]	> 125	≥ 500	> 125	> 125	≥ 500	> 125	> 125	> 125	> 125	> 125	277 to 279.5	> 125	> 125	> 125	> 125	> 1	> 125	> 125	> 125	≥ 500	MIC [20]: > 125 µM
